For the experiment, the system named is human ES cell derived cardiomyocytes. Put plainly: Activity potential measurement of cardiomyocytes treated with a potential-sensitive fluorochrome. The class given is cell-based. The settings on record: 18.75 μM vitamin E and/or 18.75 μM cholesterol. An excerpt:
Human embryonic stem cells (ES cells) were obtained from Stem Cell Research Center, the Institute for Frontier Medical Sciences, Kyoto University (Embryonic Stem Cell Center sponsored by the National Bioresource Project). Human induced pluripotent stem cells (iPS cells) were obtained from the Center for iPS Cell Research and Application, Institute for Integrated Cell-Material Sciences, Kyoto University. […] To prepare the MEF cells, the fetus of an ICR mouse at day 14 of gestation (CLEA Japan, Inc.) was beheaded and disemboweled and thereafter disintegrated into discrete cells by the method described in WO 2006/022377. […] In other experiments, the cultured cells were treated with a potential-sensitive fluorochrome and 18.75 μM of vitamin E and/or 18.75 μM of cholesterol and then the temporal change in fluorescent intensity was measured. […]

Regarding `CC(C)CCC[C@@H](C)[C@H]1CC[C@H]2[C@@H]3CC=C4C[C@@H](O)CC[C@]4(C)[C@H]3CC[C@]12C` [cholesterol], the “detection of activity potential waveforms from single cardiomyocytes (FIG. 5)” value is reported as “became observable”.
For the compound vitamin E, the “detection of activity potential waveforms from single cardiomyocytes (FIG. 5)” value is “became observable”.

These data come from patent US20120214193A1, “METHOD FOR MEASUREMENT OF FLUORESCENCE INTENSITY OF VOLTAGE-SENSITIVE FLUORESCENT DYE” (Keio University, priority 2009, published 2012).
